Results: ChEMBL document CHEMBL5505985 (Eur J Med Chem, 2024)
Active and inactive are the calls of the source. The calls are words filed in the database; no cut-off is given here.

Experiments:
[1] = tested on: RAW264.7; assay: Inhibition of LPS-induced NFkappaB activation in mouse RAW264.7 cells assessed as reduction in NF-kappaB phosphorylation level preincubated for 1 hr followed by LPS stimulation and measured after 30 mins by Westernblot analysis; type: cell-based; settings: dose 10-30 µM, time 1.5 hrs
[2] = tested on: Mus musculus; assay: Antiinflammatory activity against DSS-induced ulcerative colitis BALB/c mouse assessed as amelioration of atrophied blood sinusoids at 0.25 mg/kg, po for 5 days and measured after 12 days; type: functional, organism-based; settings: time 12.0 day
[3] = tested on: Mus musculus; assay: Antiinflammatory activity against DSS-induced ulcerative colitis BALB/c mouse assessed as amelioration of inflammatory cell infiltration at 0.25 mg/kg, po for 5 days and measured after 12 days; type: functional, organism-based; settings: time 12.0 day
[4] = tested on: RAW264.7; assay: Antiinflammatory activity in LPS-induced mouse RAW264.7 cells assessed as inhibition of NO secretion preincubated for 1 hr followed by LPS stimulation and measured after 24 hrs by Griess assay; type: functional, cell-based; settings: dose 2-30 µM, time 25.0 hrs
[5] = tested on: Mus musculus; assay: Antiinflammatory activity against DSS-induced ulcerative colitis BALB/c mouse assessed as reduction in DAI score at 0.25 mg/kg, po for 5 days and measured after 12 days; type: functional, organism-based; settings: time 12.0 day
[6] = biological target: NACHT, LRR and PYD domains-containing protein 3 (Mus musculus) (UniProt Q8R4B8); assay: Inhibition of NLRP3 inflammasome in LPS-induced mouse RAW264.7 cells assessed as inhibition of ASC expression at 10 to 30 uM primed with LPS for 4.5 hs followed by incubation with compound for 1 hr and later stimulation with ATP for 30 mins by Western blot analysis; type: cell-based; settings: dose 10-30 µM, time 1.5 hrs
[7] = tested on: Mus musculus; assay: Antiinflammatory activity against DSS-induced ulcerative colitis BALB/c mouse assessed as amelioration of crypt architecture loss at 0.25 mg/kg, po for 5 days and measured after 12 days; type: functional, organism-based; settings: time 12.0 day
[8] = tested on: RAW264.7; assay: Inhibition of MAPK signalling pathway in LPS induced mouse RAW264.7 cells assessed as effect on ERK phosphorylation level at 10 to 30 uM preincubated for 1 hr followed by LPS stimulation and measured after 30 mins by Westernblot analysis; type: cell-based; settings: dose 10-30 µM, time 1.5 hrs
[9] = biological target: T1, Prostaglandin G/H synthase 2 (Homo sapiens, UniProt P35354); assay: Inhibition of human recombinant COX-2 using arachidonic acid as substrate pretreated for 5 mins followed by substrate addition and measured after 2 mins by fluorescence based analysis
T1 sequence (P35354 whole entry): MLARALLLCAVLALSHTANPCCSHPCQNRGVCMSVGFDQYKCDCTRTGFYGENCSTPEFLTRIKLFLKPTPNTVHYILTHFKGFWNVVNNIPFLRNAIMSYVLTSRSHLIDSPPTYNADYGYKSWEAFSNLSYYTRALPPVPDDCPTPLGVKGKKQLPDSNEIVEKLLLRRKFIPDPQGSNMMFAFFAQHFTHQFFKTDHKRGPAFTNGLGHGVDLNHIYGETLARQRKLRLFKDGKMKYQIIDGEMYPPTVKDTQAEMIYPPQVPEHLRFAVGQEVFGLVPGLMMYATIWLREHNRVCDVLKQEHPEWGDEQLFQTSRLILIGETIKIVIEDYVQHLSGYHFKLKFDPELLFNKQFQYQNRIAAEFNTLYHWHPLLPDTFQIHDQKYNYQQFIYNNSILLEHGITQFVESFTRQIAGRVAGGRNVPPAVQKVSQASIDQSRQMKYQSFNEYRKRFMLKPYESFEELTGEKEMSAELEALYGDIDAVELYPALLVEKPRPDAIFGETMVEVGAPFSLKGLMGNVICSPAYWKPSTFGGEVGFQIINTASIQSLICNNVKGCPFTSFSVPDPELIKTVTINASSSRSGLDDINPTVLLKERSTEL

[10] = tested on: Mus musculus; assay: Protection against DSS-induced ulcerative colitis BALB/c mouse assessed as recovery of blood sinusoids at 0.25 mg/kg, po for 5 days and measured after 12 days by H and E staining based analysis; type: functional, organism-based; settings: time 12.0 day
[11] = tested on: RAW264.7; assay: Antiinflammatory activity in LPS-induced mouse RAW264.7 cells assessed as downregulation of IL-1 beta secretion preincubated for 1 hr followed by LPS stimulation and measured after 24 hrs by ELISA method; type: functional, cell-based; settings: dose 2-30 µM, time 25.0 hrs
[12] = tested on: Mus musculus; assay: Protection against DSS-induced ulcerative colitis BALB/c mouse assessed as recovery of cell matrix development at 0.25 mg/kg, po for 5 days and measured after 12 days by H and E staining based analysis; type: functional, organism-based; settings: time 12.0 day
[13] = tested on: Mus musculus; assay: Antiinflammatory activity against DSS-induced ulcerative colitis BALB/c mouse assessed as amelioration of leucocyte infiltration at 0.25 mg/kg, po for 5 days and measured after 12 days; type: functional, organism-based; settings: time 12.0 day
[14] = biological target: NACHT, LRR and PYD domains-containing protein 3 (Mus musculus) (UniProt Q8R4B8); assay: Inhibition of NLRP3 inflammasome in LPS-induced mouse RAW264.7 cells assessed as reduction in NLRP3 activation at 10 to 30 uM primed with LPS for 4.5 hs followed by incubation with compound for 1 hr and later stimulation with ATP for 30 mins by Western blot analysis; type: cell-based; settings: dose 10-30 µM, time 1.5 hrs
[15] = biological target: NACHT, LRR and PYD domains-containing protein 3 (Mus musculus) (UniProt Q8R4B8); assay: Inhibition of NLRP3 inflammasome in LPS-induced mouse RAW264.7 cells assessed as downregulation of caspase-1 activation primed with LPS for 4.5 hs followed by incubation with compound for 1 hr and later stimulation with ATP for 30 mins by Western blot analysis; type: cell-based; settings: dose 10-30 µM, time 1.5 hrs
[16] = tested on: RAW264.7; assay: Inhibition of LPS-induced NFkappaB activation in mouse RAW264.7 cells assessed as inhibition of IkappaBalpha phosphorylation level preincubated for 1 hr followed by LPS stimulation and measured after 30 mins by Westernblot analysis; type: cell-based; settings: dose 10-30 µM, time 1.5 hrs
[17] = tested on: RAW264.7; assay: Inhibition of MAPK signalling pathway in LPS induced mouse RAW264.7 cells assessed as effect on p38 phosphorylation level at 10 to 30 uM preincubated for 1 hr followed by LPS stimulation and measured after 30 mins by Westernblot analysis; type: cell-based; settings: dose 10-30 µM, time 1.5 hrs
[18] = tested on: Mus musculus; assay: Antiinflammatory activity against DSS-induced ulcerative colitis BALB/c mouse assessed as suppression of weight loss at 0.25 mg/kg, po for 5 days and measured on day 10; type: functional, organism-based; settings: time 10.0 day
[19] = tested on: RAW264.7; assay: Inhibition of LPS-induced NFkappaB activation in mouse RAW264.7 cells assessed as inhibition of IKKalpha phosphorylation level preincubated for 1 hr followed by LPS stimulation and measured after 30 mins by Westernblot analysis; type: cell-based; settings: dose 10-30 µM, time 1.5 hrs
[20] = tested on: RAW264.7; assay: Antiinflammatory activity in LPS-induced mouse RAW264.7 cells assessed as suppression of PGE2 secretion at 2 to 30 uM preincubated for 1 hr followed by LPS stimulation and measured after 24 hrs by ELISA method; type: functional, cell-based; settings: dose 2-30 µM, time 25.0 hrs
[21] = tested on: RAW264.7; assay: Antiinflammatory activity in LPS-induced mouse RAW264.7 cells assessed as downregulation of IL-6 secretion preincubated for 1 hr followed by LPS stimulation and measured after 24 hrs by ELISA method; type: functional, cell-based; settings: dose 2-30 µM, time 25.0 hrs
[22] = tested on: Mus musculus; assay: Antiinflammatory activity against DSS-induced ulcerative colitis BALB/c mouse assessed as amelioration of goblet cell depletion at 0.25 mg/kg, po for 5 days and measured after 12 days; type: functional, organism-based; settings: time 12.0 day
[23] = tested on: RAW264.7; assay: Antiinflammatory activity in LPS-induced mouse RAW264.7 cells assessed as downregulation of TNF-alpha secretion preincubated for 1 hr followed by LPS stimulation and measured after 3 hrs by ELISA method; type: functional, cell-based; settings: dose 2-30 µM, time 4.0 hrs
[24] = tested on: RAW264.7; assay: Cytotoxicity activity mouse RAW264.7 cells assessed as reduction in cell viability at 10 uM incubated for 48 hrs by MTT assay; type: toxicity, cell-based; settings: raw264.7, 48 h

NACHT, LRR and PYD domains-containing protein 3 (Mus musculus), sequence (Q8R4B8 whole entry, the tested form may be a part): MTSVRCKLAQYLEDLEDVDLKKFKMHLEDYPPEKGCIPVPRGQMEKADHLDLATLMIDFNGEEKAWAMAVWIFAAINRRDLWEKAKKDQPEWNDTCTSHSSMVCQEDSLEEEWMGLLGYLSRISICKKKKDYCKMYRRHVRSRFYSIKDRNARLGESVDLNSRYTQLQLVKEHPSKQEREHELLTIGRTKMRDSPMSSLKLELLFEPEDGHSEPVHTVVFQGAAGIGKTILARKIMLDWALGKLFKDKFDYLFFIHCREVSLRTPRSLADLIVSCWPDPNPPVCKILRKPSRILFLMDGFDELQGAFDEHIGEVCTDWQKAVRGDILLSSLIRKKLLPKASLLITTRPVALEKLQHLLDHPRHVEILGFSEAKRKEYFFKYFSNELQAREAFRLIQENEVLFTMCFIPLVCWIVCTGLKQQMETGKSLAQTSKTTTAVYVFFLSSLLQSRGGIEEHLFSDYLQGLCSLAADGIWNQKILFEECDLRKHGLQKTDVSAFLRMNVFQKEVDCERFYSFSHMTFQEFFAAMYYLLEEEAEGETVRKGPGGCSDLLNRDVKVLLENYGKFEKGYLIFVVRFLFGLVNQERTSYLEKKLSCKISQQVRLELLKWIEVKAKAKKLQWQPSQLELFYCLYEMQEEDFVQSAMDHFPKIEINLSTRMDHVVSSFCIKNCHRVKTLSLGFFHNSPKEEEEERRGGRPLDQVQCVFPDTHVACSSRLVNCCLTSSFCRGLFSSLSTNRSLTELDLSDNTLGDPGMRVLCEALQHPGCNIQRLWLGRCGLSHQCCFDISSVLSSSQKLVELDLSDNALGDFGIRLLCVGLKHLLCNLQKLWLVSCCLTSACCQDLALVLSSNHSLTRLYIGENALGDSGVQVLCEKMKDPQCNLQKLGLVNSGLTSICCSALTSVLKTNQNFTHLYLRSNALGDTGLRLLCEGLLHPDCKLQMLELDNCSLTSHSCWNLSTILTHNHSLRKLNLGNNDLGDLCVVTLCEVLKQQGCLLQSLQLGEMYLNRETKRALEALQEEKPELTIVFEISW

For `COc1ccccc1C1=Nn2c(Cc3ccccc3Nc3c(Cl)cccc3Cl)nnc2SC1`, which inhibition [1] is on record?
Its inhibition is “Dose-Dependent Effect”.

What about the Activity [2] of the same compound?
Its Activity is “Active”.

And the Activity [3]?
The Activity was “Active”.

What about the Activity [4] of the same compound?
The Activity was “Dose-Dependent Effect”.

What about the Activity [5] of the same compound?
The Activity was “Active”.

What about the inhibition [6] of the same compound?
The inhibition was “Active”.

And the Activity [7]?
The Activity was “Active”.

And the inhibition [8]?
Its inhibition is “inactive”.

What about the IC50 [9] of the same compound?
The IC50 was 1530 nM.

What about the Activity [10] of the same compound?
The Activity was “Active”.

And the Activity [11]?
The Activity was “Dose-Dependent Effect”.

And the Activity [12]?
The Activity was “Active”.

What about the Activity [13] of the same compound?
The Activity was “Active”.

And the inhibition [14]?
The inhibition was “Active”.

What about the inhibition [15] of the same compound?
The inhibition was “Dose-Dependent Effect”.

And the inhibition [16]?
Its inhibition is “Dose-Dependent Effect”.

What about the inhibition [17] of the same compound?
The inhibition was “inactive”.

And the Activity [18]?
The Activity was “Active”.

What about the inhibition [19] of the same compound?
The inhibition was “Dose-Dependent Effect”.

And the Activity [20]?
Its Activity is “Active”.

And the Activity [21]?
Its Activity is “Dose-Dependent Effect”.

And the Activity [22]?
The Activity was “Active”.

And the Activity [23]?
Its Activity is “Dose-Dependent Effect”.

What about the Activity [24] of the same compound?
The Activity was “Non-Toxic”.
